Consider three compounds from patent publication US20080221548A1, “Eradication of Pigmentation and Scar Tissue” (priority 2005, published 2008).

The structures appear in SMILES notation.

Experiment [1] is described as follows: Experiment 1: removal of tattoo pigmentation with different solutions while puncturing the skin. The experiment is classed as in vivo, pig. The procedure: A number of tattoos were applied to the skin of a pig. Each of the tattoos was a square having dimensions approximately 1 cm×1 cm filled with a solid blue-grey color. […] FIG. 3 is a reproduction of a photograph taken 14 days after four of these tattooed areas were treated according to the method of the invention using different types of solution. Square 1 was treated using distilled water and essentially no color reduction was observed. Square 2 was treated using a 2% aqueous solution of salicylic acid. […] Square 3 was treated using a solution containing 17% EDTA.

The nature of experiment [2]: Experiment 3: treatment of a pigmented area of skin surrounding a scab by skin puncturing with salicylic acid rinse. It is filed as in vivo. Particulars: 5% aqueous solution of salicylic acid, ~10 cc/cm^2, ten minutes puncturing; fourteen days after treatment. The procedure: In FIG. 5A is shown a photograph of an area of skin on which there is a reddish-purple pigmented area surrounding brown colored scab. The pigmented area surrounding the scab was treated using the method described above by repeatedly puncturing the skin for ten minutes. During the treatment 10 cc of a 5% aqueous solution of salicylic acid (˜10 cc/cm^2) was used to clean the needles and surface of the skin. A dry bandage was placed over the treated area for a few days to keep the site clean, but no medication was applied. After this the skin was left unattended. […] Although embodiments of the invention have been described by way of illustration, it will be understood that the invention may be carried out with many variations, modifications, and adaptations, without departing from its spirit or exceeding the scope of the claims.

The nature of experiment [3]: Experiment 2: treatment of tattooed squares by skin puncturing with salicylic acid rinse. The experiment is classed as in vivo, pig. Conditions: 5% aqueous solution of salicylic acid, 10 cc/cm^2, three minutes puncturing, five squares; eighteen days later. The procedure: A number of tattoos were applied to the skin of a pig. Each of the tattoos was a square having dimensions approximately 1 cm×1 cm filled with a solid blue-grey color. Two months after the tattoos were applied each of the five squares labeled 1 to 5 on the photograph shown in FIG. 4A was treated according to the method of the invention. The treatment for each square consisted of repeatedly puncturing the skin with the device described hereinabove for three minutes. As the machine was operated, the needles and skin surface were cyclically rinsed with a 5% aqueous solution of salicylic acid. A total of 10 cc of solution was used for each square (i.e. 10 cc/cm^2). Following this initial treatment no further treatment was applied to these five locations.

As for `O=C(O)CN(CCN(CC(=O)O)CC(=O)O)CC(=O)O` [EDTA], the scar after treatment result in experiment [1] (solution containing 17% EDTA, square 3) was “did not vanish”. The color reduction in experiment [1] (solution containing 17% EDTA, tattoo square 3, 14 days after treatment) is 60%.

`OO` [H2O2]: the reduction in color in experiment [1] (H2O2, tattoo square 4, 14 days after treatment) is recorded as 40-60%.

Consider `O=C(O)c1ccccc1O` [salicylic acid], for which, in experiment [2], the “color of the pigmented area after treatment” value is given as “changed to a color slightly greyer than the natural skin color” and the “scar tissue after treatment” value is recorded as “gone”. The color reduction entry in experiment [1] (2% aqueous solution of salicylic acid, 1 cm x 1 cm blue-grey tattoo square 2, 14 days after treatment plus a few days) is “approximately 90%”. Besides, the scar after treatment entry in experiment [1] (2% aqueous solution of salicylic acid, square 2, a few days after the 14-day photograph) is listed as “vanished leaving no trace”. For the same compound, the “tattoo color after treatment” value in experiment [3] is reported as “all of the original blue-grey color has disappeared”.
